{"source": "patent US12171909B2", "about": "“Implants having a drug load of an oxysterol and methods of use” (WARSAW ORTHOPEDIC, INC., priority 2015, dated 2024)", "key": {"[1]": {"system": "rat two-level spine model", "test": "posterolateral spinal fusion in a rat two-level spine model (radiographs, manual palpation)", "assay_type": "in vivo", "details": "for spinal fusion (figure legend): bone growth at 4 and 8 weeks, fusion confirmed by manual palpation at 8 weeks; for bridging bone on radiographs: 4-week and 8-week timepoints, rat L3-L5; for fusion observed in rat spines (manual palpation): matrix of Oxy133, collagen and ceramic wetted with sterile water, two implants bilaterally in posterolateral space, 8-week sacrifice", "experimental": "FIG. 6 illustrates uses of a formulation of compression resistant implants having 20 mg of Oxy133 on each side of the implant, in accordance with the implants described herein. […] Bone growth in rat test subjects can be seen after 4 and 8 weeks post-implantation, and fusion was confirmed by manual palpation of the spine segments at 8 weeks. […] A dry composition of a matrix containing Oxy133, collagen and ceramic as described herein was prepared and wetted with sterile water to be implanted in rat spines as shown in FIG. 6. The wetted matrix was cut in half with a razor blade to yield two halves. The two implants were molded into cylindrical shapes prior to insertion and were positioned bilaterally in the posterolateral space of each test subject. Each implant contained 20 mg Oxy133. Radiographs were taken roughly 10 minutes after the procedure, 4 weeks after the procedure, and 8 weeks after the procedure. […] Fusion was tested at 8-week sacrifice by manual palpation. […] A dry composition of a matrix containing Oxy133, collagen and ceramic as described herein was prepared and wetted with sterile water to be implanted in rat spines as shown in FIG. 6. The wetted matrix was cut in half with a razor blade to yield two halves. The two implants were molded into cylindrical shapes prior to insertion and were positioned bilaterally in the posterolateral space of each test subject. Each implant contained […] Oxy133. Radiographs were taken roughly 10 minutes after the procedure, 4 weeks after the procedure, and 8 weeks after the procedure. […] Fusion was tested at 8-week sacrifice by manual palpation."}, "solubility in water": {"test": "solubility in water", "assay_type": "physicochemical", "from_the_text": "The Oxy133 can be solubilized in a non-aqueous solvent, such as for example, ethanol and mixed into a solution or suspension. In some embodiments, the Oxy 133 can be filtered by passing the Oxy 133 and solvent through a filter (e.g., 0.22 microns). This will remove bacteria and other larger-size particulates out of the composition. The Oxy 133 used in the composition can be micronized before it is mixed with solvents and other excipients. In various embodiments, the particle size of the Oxy 133 can range from about 1 micron to 250 microns. In some embodiments, the Oxy 133 can have a particle size of from about 5 microns to about 100 microns or from about 20 to 50 microns. The Oxy 133 in the solution or suspension can be added to a slurry of biodegradable polymer and/or the ceramic particles, mixed and, then optionally dried."}}, "data": [{"smiles": "CCCCCC[C@](C)(O)[C@H]1CC[C@H]2[C@@H]3C[C@H](O)[C@H]4C[C@@H](O)CC[C@]4(C)[C@H]3CC[C@@]21C", "note": "[Oxy133, (3S,5S,6S,8R,9S,10R,13S,14S,17S)-17-((S)-2-hydroxyoctan-2-yl)-10,13-dimethylhexadecahydro-1H-cyclopenta [a]phenanthrene-3,6-diol]", "values": [{"measurement": "spinal fusion (figure legend)", "setting": "[1]; 20 mg of Oxy133 on each side, FIG. 6", "result": "yielded spinal fusion"}, {"measurement": "spinal fusion (figure legend)", "setting": "[1]; 125 mg of Oxy133 on each side, FIG. 7", "result": "yielded spinal fusion"}, {"measurement": "bridging bone on radiographs", "setting": "[1]; each implant 20 mg Oxy133", "result": "promoted bridging bone across the transverse processes of L3-L5"}, {"measurement": "bridging bone on radiographs", "setting": "[1]; each implant 125 mg Oxy133", "result": "promoted bridging bone across the transverse processes of L3-L5"}, {"measurement": "fusion observed in rat spines (manual palpation)", "setting": "[1]; each implant 20 mg Oxy133", "result": 100, "unit": "%"}, {"measurement": "fusion observed in rat spines (manual palpation)", "setting": "[1]; each implant 125 mg Oxy133", "result": 100, "unit": "%"}, {"measurement": "solubility in water", "setting": "solubility in water", "result": "only slightly soluble or insoluble in water"}]}]}
